For orientation: IC50 means the concentration that gives 50% inhibition.

The values below come from patent publication US20070197512A1, “Carboxylic Acid Compounds and Use Thereof” (Japan Tobacco Inc., priority 2006, published 2007).

For this assay, the target named is T1, human URAT1 (Homo sapiens, UniProt Q96S37).
T1 construct: Human URAT1 full length cDNA was subcloned to expression vector pcDNA3.1; expressed in transfected cells; host or cells: HEK293 cells (pcDNA3.1, geneticin-selected)
T1 sequence (Q96S37 1-553): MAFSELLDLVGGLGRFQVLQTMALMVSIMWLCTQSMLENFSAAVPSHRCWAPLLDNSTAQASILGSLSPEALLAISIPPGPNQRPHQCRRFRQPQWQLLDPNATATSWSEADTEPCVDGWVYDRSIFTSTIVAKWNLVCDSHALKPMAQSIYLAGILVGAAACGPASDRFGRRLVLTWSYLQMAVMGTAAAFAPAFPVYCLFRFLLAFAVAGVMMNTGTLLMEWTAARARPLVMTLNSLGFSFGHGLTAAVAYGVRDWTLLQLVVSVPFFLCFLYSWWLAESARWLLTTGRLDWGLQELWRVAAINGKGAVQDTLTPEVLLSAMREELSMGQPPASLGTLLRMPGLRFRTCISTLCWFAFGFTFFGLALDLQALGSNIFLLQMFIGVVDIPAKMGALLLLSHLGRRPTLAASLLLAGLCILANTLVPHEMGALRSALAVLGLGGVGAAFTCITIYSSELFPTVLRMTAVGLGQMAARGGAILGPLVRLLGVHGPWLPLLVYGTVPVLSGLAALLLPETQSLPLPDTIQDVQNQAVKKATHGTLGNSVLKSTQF
Put plainly: Uric acid transport inhibitory test using human URAT1-expressing cells. The format is cell-based. The note with it: human URAT1-expressing HEK293 cells, 14C-uric acid 50 μM, uptake 5 min, room temperature; read-out: hURAT1 IC50. The source says:
Experimental Example 1 Uric Acid Transport Inhibitory Test Using Human URAT1-Expressing Cells
Human URAT1 full length cDNA was subcloned to expression vector pcDNA3.1 and human URAT1 gene was transfected into human embryonic kidney derived cell line (HEK293 cells) by liposome method using Lipofectamine2000. Simultaneously, HEK293 cells transfected with expression vector pcDNA3.1 alone (hereinafter mock cells) were also produced. HEK293 cells expressing human URAT1 gene or mock cells were selected with geneticin resistance as an index. The functional expression of human URAT1 gene was confirmed by a method similar to the following method, using ^14C-uric acid transport into the cells as an index.
Human URAT1-expressing HEK293 cells or mock cells were cultured in Dulbecco's modified Eagle's MEM medium (high glucose) containing 10% fetal bovine serum, 0.5 mg/mL geneticin sulfate, 100 units/mL penicillin and 100 μg/mL streptomycin under the conditions of 37° C. and 5% CO2 in an incubator. The cells were plated in a 96 well plate (poly-D-Lysine coated) at 1×10^5 cells/well and the following uric acid transport inhibitory test was performed 24 hr later. This test was performed at room temperature.
After the medium was removed by aspiration from each well, the cells were washed once with Hank's Balanced Salt Solution (HBSS) and preincubated with HBSS (100 μL/well) for 5 min. HBSS was aspirated and an assay buffer (wherein NaCl in the above-mentioned HBSS had been substituted with Na-gluconate) containing various concentrations of the Example compound and a radioactive ligand (14C-uric acid; final concentration 50 μM) was added to each well at 50 μL/well and an uptake reaction was carried out for 5 min. After the reaction, the cells were washed twice with ice-cold HBSS (150 μL/well), and Microscinti™ 20 (PerkinElmer) was added at 50 μL/well. The cells were lysed by stirring and the radioactivity of each well was measured by a liquid scintillation counter (TOP COUNT, Packard).
The uric acid transport rate (%) of the Example compound at each concentration was calculated relative to the radioactivity (difference in radioactivity between human URAT1-expressing HEK293 cells and mock cells without addition of Example compound (DMSO addition)) showing URAT1 specific uric acid transport as 100%, and the concentration (IC50) of the Example compound necessary for inhibiting the uric acid transport rate by 50% was determined. In Table 24-Table 27, “+++” means IC50 value of less than 300 nM, “++” means IC50 value of 300 nM to less than 3000 nM, and “+” means IC50 value of not less than 3000 nM.
With `Cc1ccc2c(c1)OC(C(C)C)C(=O)N2CCC(=O)O` (stereo not shown) [Example 43, 3-(2-isopropyl-7-methyl-3-oxo-2,3-dihydrobenzo[1,4]oxazin-4-yl)propionic acid], the IC50 lay within 0.3 to 3 µM.
For `Cc1cccc2c1OC(C(C)C)C(=O)N2CCC(=O)O` (stereo not shown) [Example 44, 3-(2-isopropyl-8-methyl-3-oxo-2,3-dihydrobenzo[1,4]oxazin-4-yl)propionic acid] the value was less than 0.3 µM; for `CC(C)c1cccc2c1OC(c1ccccc1)CN2C(=O)/C=C/C(=O)O` (stereo not shown) [Example 45, (E)-4-(8-isopropyl-2-phenyl-2,3-dihydrobenzo[1,4]oxazin-4-yl)-4-oxo-2-butenoic acid], 0.3 to 3 µM.
Turning to `CC(C)C1Oc2c(cccc2C(C)(C)C)N(CCC(=O)O)C1=O` (stereo not shown) [Example 46, 3-(8-tert-butyl-2-isopropyl-3-oxo-2,3-dihydrobenzo[1,4]oxazin-4-yl)propionic acid], the half-maximal inhibitory concentration (IC50) is not below 3 µM.
Regarding `Cc1cccc2c1OC(c1ccccc1)C(=O)N2CCC(=O)O` (stereo not shown) [Example 47, 3-(8-methyl-3-oxo-2-phenyl-2,3-dihydrobenzo[1,4]oxazin-4-yl)propionic acid], the IC50 lay within 0.3 to 3 µM.
Turning to `Cc1ccc2c(c1)OC(c1ccccc1)C(=O)N2CCC(=O)O` (stereo not shown) [Example 48, 3-(7-methyl-3-oxo-2-phenyl-2,3-dihydrobenzo[1,4]oxazin-4-yl)propionic acid], the IC50 was not below 3 µM.
On to `CC(C)(C)c1cccc2c1OC(c1ccccc1)C(=O)N2CCC(=O)O` (stereo not shown) [Example 49, 3-(8-tert-butyl-3-oxo-2-phenyl-2,3-dihydrobenzo[1,4]oxazin-4-yl)propionic acid], for which the 50% inhibitory concentration (IC50) lay in the range of 0.3 to 3 µM.
For `CC(C)C1Oc2c(C3CCCCC3)cccc2N(CCC(=O)O)C1=O` (stereo not shown) [Example 50, 3-(8-cyclohexyl-2-isopropyl-3-oxo-2,3-dihydrobenzo[1,4]oxazin-4-yl)propionic acid] the value was not below 3 µM.
Regarding `CC(C)C1Oc2c(Br)cccc2N(CCC(=O)O)C1=O` (stereo not shown) [Example 51, 3-(8-bromo-2-isopropyl-3-oxo-2,3-dihydrobenzo[1,4]oxazin-4-yl)propionic acid], the IC50 was 0.3 to 3 µM.
For `CC(C)C1CN(C(=O)/C=C/C(=O)O)c2cccc(C(C)(C)C)c2O1` (stereo not shown) [Example 52, (E)-4-(8-tert-butyl-2-isopropyl-2,3-dihydrobenzo[1,4]oxazin-4-yl)-4-oxo-2-butenoic acid] the value was not below 3 µM; for `CCc1cccc2c1OC(C(C)C)C(=O)N2CCC(=O)O` (stereo not shown) [Example 53, 3-(8-ethyl-2-isopropyl-3-oxo-2,3-dihydrobenzo[1,4]oxazin-4-yl)propionic acid], 0.3 to 3 µM; for `Cc1ccc2c(c1)OC(c1ccccc1)CN2C(=O)/C=C/C(=O)O` (stereo not shown) [Example 57, (E)-4-(7-methyl-2-phenyl-2,3-dihydrobenzo[1,4]oxazin-4-yl)-4-oxo-2-butenoic acid], not below 3 µM.
With `Cc1ccc2c(c1)N(CCC(=O)O)C(=O)C(C(C)C)O2` (stereo not shown) [Example 58, 3-(2-isopropyl-6-methyl-3-oxo-2,3-dihydrobenzo[1,4]oxazin-4-yl)propionic acid], the IC50 was 0.3 to 3 µM.
Turning to `CCc1cccc2c1OC(c1ccccc1)C(=O)N2CCC(=O)O` (stereo not shown) [Example 59, 3-(8-ethyl-3-oxo-2-phenyl-2,3-dihydrobenzo[1,4]oxazin-4-yl)propionic acid], the IC50 lay in the range of 0.3 to 3 µM.
Consider `CCc1cccc2c1OC(C(C)C)CN2C(=O)/C=C/C(=O)O` (stereo not shown) [Example 60, (E)-4-(8-ethyl-2-isopropyl-2,3-dihydrobenzo[1,4]oxazin-4-yl)-4-oxo-2-butenoic acid], for which the half-maximal inhibitory concentration (IC50) lay within 0.3 to 3 µM.
As for `Cc1cc(C)c2c(c1)N(CCC(=O)O)C(=O)C(C(C)C)O2` (stereo not shown) [Example 61, 3-(2-isopropyl-6,8-dimethyl-3-oxo-2,3-dihydrobenzo[1,4]oxazin-4-yl)propionic acid], the IC50 was less than 0.3 µM.
For `CC(C)C1Oc2cc(Cl)ccc2N(CCC(=O)O)C1=O` (stereo not shown) [Example 62, 3-(7-chloro-2-isopropyl-3-oxo-2,3-dihydrobenzo[1,4]oxazin-4-yl)propionic acid], the concentration for half-maximal inhibition (IC50) is 0.3 to 3 µM.
With `CC(C)C1Oc2ccc(Cl)cc2N(CCC(=O)O)C1=O` (stereo not shown) [Example 63, 3-(6-chloro-2-isopropyl-3-oxo-2,3-dihydrobenzo[1,4]oxazin-4-yl)propionic acid], the IC50 was less than 0.3 µM.
Take `O=C(O)CCN1C(=O)C(c2ccccc2)Oc2c(Br)cccc21` (stereo not shown) [Example 66, 3-(8-bromo-3-oxo-2-phenyl-2,3-dihydrobenzo[1,4]oxazin-4-yl)propionic acid]: the IC50 lay in the range of 0.3 to 3 µM.
For `CCC1CN(C(=O)/C=C/C(=O)O)c2cccc(C(C)C)c2O1` (stereo not shown) [Example 67, (E)-4-(2-ethyl-8-isopropyl-2,3-dihydrobenzo[1,4]oxazin-4-yl)-4-oxo-2-butenoic acid] the value was 0.3 to 3 µM; for `CC(C)C1CN(C(=O)/C=C/C(=O)O)c2ccc(Cl)cc2O1` (stereo not shown) [Example 68, (E)-4-(7-chloro-2-isopropyl-2,3-dihydrobenzo[1,4]oxazin-4-yl)-4-oxo-2-butenoic acid], 0.3 to 3 µM; for `O=C(O)/C=C/C(=O)N1CC(c2ccccc2)Oc2cc(Cl)ccc21` (stereo not shown) [Example 70, (E)-4-(7-chloro-2-phenyl-2,3-dihydrobenzo[1,4]oxazin-4-yl)-4-oxo-2-butenoic acid], not below 3 µM.
In the case of `O=C(O)/C=C/C(=O)N1CC(c2ccccc2)Oc2ccc(Cl)cc21` (stereo not shown) [Example 71, (E)-4-(6-chloro-2-phenyl-2,3-dihydrobenzo[1,4]oxazin-4-yl)-4-oxo-2-butenoic acid] it was not below 3 µM.
For `Cc1cc(C)c2c(c1)N(CCC(=O)O)C(=O)C(c1ccccc1)O2` (stereo not shown) [Example 72, 3-(6,8-dimethyl-3-oxo-2-phenyl-2,3-dihydrobenzo[1,4]oxazin-4-yl)propionic acid], the IC50 was less than 0.3 µM.
In the case of `Cc1ccc2c(c1)N(CCC(=O)O)C(=O)C(c1ccccc1)O2` (stereo not shown) [Example 75, 3-(6-methyl-3-oxo-2-phenyl-2,3-dihydrobenzo[1,4]oxazin-4-yl)propionic acid] it was 0.3 to 3 µM.
As to `O=C(O)CCN1C(=O)C(c2ccccc2)Oc2cc(Cl)ccc21` (stereo not shown) [Example 76, 3-(7-chloro-3-oxo-2-phenyl-2,3-dihydrobenzo[1,4]oxazin-4-yl)propionic acid], the IC50 is not below 3 µM.
In the case of `O=C(O)CCN1C(=O)C(c2ccccc2)Oc2ccc(Cl)cc21` (stereo not shown) [Example 77, 3-(6-chloro-3-oxo-2-phenyl-2,3-dihydrobenzo[1,4]oxazin-4-yl)propionic acid], the IC50 was not below 3 µM.
On to `CC(C)C1CN(C(=O)/C=C/C(=O)O)c2cccc(Br)c2O1` (stereo not shown) [Example 78, (E)-4-(8-bromo-2-isopropyl-2,3-dihydrobenzo[1,4]oxazin-4-yl)-4-oxo-2-butenoic acid], for which the IC50 is not below 3 µM.
As to `CC(C)C1CN(C(=O)/C=C/C(=O)O)c2cccc(C3CCCCC3)c2O1` (stereo not shown) [Example 79, (E)-4-(8-cyclohexyl-2-isopropyl-2,3-dihydrobenzo[1,4]oxazin-4-yl)-4-oxo-2-butenoic acid], the IC50 is not below 3 µM.
With `CC(C)C1Oc2c(Cl)cc(Cl)cc2N(CCC(=O)O)C1=O` (stereo not shown) [Example 80, 3-(6,8-dichloro-2-isopropyl-3-oxo-2,3-dihydrobenzo[1,4]oxazin-4-yl)propionic acid], the IC50 was less than 0.3 µM.
With `Cc1cc(Cl)cc2c1OC(C(C)C)C(=O)N2CCC(=O)O` (stereo not shown) [Example 81, 3-(6-chloro-2-isopropyl-8-methyl-3-oxo-2,3-dihydrobenzo[1,4]oxazin-4-yl)propionic acid], the IC50 is less than 0.3 µM.
